# Test results reported in patent US20230183243A1, “HETEROARYL DERIVATIVES AND PHARMACEUTICAL COMPOSITION COMPRISING SAME AS ACTIVE INGREDIENT” (VORONOI INC., priority 2019, published 2023).
# Columns and labels:
# MDA-MB-231 cells = assay: Inhibition of proliferation of triple-negative breast cancer cells, CellTiter-Glo; type: cell-based; conditions: Homo sapiens, 120 h; MDA-MB-231, cultured for 5 days
# Outline: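 MDA-MB-231 cells pre-cultured 24 h (5% CO2, 37 °C), then exposed to compound for 5 days at 12 three-fold dilutions, final 10 μM to 0.05 nM. Viability read by CellTiter-Glo luminescence after 10 min at 37 °C; growth inhibition calculated relative to untreated solvent-control cells.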
# SHP-77 = assay: Inhibition of proliferation of small cell lung cancer cells, CellTiter-Glo; type: cell-based; conditions: Homo sapiens, SHP77, 120 h; SHP-77, cultured for 5 days
# Protocol: Specifically, the following test was performed to evaluate the inhibitory activity of the compound according to the present invention against the cell proliferation in the SCLC cells.
# To check an inhibitory ability of cell growth in one SCLC cell line, a test was performed as follows. Cells were seeded in 180 μL of a culture broth at a density of 2,000 to 3,000 cells/well in a white clear bottom 96-well plate (Corning) according to the growth ability of each cell, and then cultured for 24 hours under conditions of 5% CO2 and 37° C. Thereafter, the compound was prepared by diluting a 10 mM stock solution three-fold with 100% DMSO at a total of 12 concentrations so that a peak concentration of the compound was in a range of 10 mM to 0.05 μM, and the diluted compound was then diluted in each cell culture medium so that a final concentration of the compound was in a range of 100 μM to 0.5 nM. 20 μL of a diluted solution diluted with a medium was added to the cell solution in which cells were seeded in the 96-well plate on the previous day so that a final concentration of the diluted solution was in a range of 10 μM to 0.05 nM. Each of the cells was cultured for 5 days. To check cell viability, a mixture provided in aCellTiter-Glo® Luminescent Cell Viability Assay Kit (Promega) was added to each of the cultured cell media, and cultured for another 10 minutes under a condition of 37° C. Then, a degree of luminescence (fluorescence) was measured. A degree of inhibition of the cell growth according to the treatment concentration of each of the compounds was calculated based on the fluorescence of the solvent control cells which were not treated with the compound. In this case, the concentration of each of the compounds inhibiting 50% of the cell growth was determined to be a GI50 (nM) value, and calculated using Prism (Version 7.01; GraphPad) software.
# TTK = target: T1, TTK (Homo sapiens, UniProt P33981); assay: TTK enzyme activity, ADP-Glo kinase assay; type: biochemical; set-up: purchased SignalChem T20-10G; conditions: purified human TTK, ATP 10 μM, 25° C., 2 hours
# T1 sequence (P33981 1-857): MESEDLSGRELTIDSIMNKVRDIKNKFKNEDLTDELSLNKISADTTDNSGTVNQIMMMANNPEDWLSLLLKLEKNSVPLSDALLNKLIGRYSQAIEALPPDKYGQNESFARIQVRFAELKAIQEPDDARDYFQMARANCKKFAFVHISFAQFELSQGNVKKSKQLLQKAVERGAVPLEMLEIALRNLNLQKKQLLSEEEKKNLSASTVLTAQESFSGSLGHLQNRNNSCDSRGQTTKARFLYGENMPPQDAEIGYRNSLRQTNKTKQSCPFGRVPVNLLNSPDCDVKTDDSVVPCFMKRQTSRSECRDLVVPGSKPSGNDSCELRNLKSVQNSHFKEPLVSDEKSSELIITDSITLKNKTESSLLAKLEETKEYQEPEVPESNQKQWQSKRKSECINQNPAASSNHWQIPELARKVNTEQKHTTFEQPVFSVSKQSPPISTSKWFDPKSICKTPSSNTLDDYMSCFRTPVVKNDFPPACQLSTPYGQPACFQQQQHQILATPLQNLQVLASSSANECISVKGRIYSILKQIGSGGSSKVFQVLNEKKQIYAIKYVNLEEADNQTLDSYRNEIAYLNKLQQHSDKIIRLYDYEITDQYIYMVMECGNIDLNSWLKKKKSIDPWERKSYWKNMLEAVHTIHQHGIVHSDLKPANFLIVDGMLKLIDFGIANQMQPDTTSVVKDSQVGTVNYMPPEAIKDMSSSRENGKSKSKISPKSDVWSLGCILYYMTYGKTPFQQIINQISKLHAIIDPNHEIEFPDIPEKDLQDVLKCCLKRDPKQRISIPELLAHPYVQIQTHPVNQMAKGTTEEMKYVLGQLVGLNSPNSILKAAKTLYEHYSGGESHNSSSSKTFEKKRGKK
# Outline: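 ADP-Glo read-out; percent inhibition at each compound concentration was relative to the solvent-only control. The reactions contained 25 ng enzyme, 0.2 μg substrate and 10 μM ATP in 40 mM Tris-HCl pH 7.4 with 20 mM MgCl2, 0.5 mg/mL BSA and 50 μM DTT, and ran 2 h at 25 °C.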
GI50 (MDA-MB-231 cells) [nM],GI50 (SHP-77) [nM],IC50 (TTK) [nM],Structure (SMILES)
< 100,< 100,< 50,"Cn1nccc1-c1ccc(Nc2nc(NC3CCOC(C)(C)C3)c3c(C(F)(F)F)c[nH]c3n2)c2c1OCCO2 (centres unmarked) [Example 172, N^4-(2,2-dimethyltetrahydro-2H-pyran-4-yl)-N^2-(8-(1-methyl-1H-pyrazol-5-yl)-2,3-dihydrobenzo[b][1,4]dioxin-5-yl)-5-(trifluoromethyl)-7H-pyrrolo[2,3-d] pyrimidine-2,4-diamine]"
< 100,< 100,< 50,COC[C@@H](C)Nc1nc(Nc2ccc(-c3ccnn3C)c3c2OCCO3)nc2[nH]cc(C#N)c12 [Example 101]
100 to 1000,< 100,< 50,"Cn1nccc1-c1ccc(Nc2nc(C3CC3)c3c(C#N)c[nH]c3n2)c2c1OCCO2 [Example 112, 4-cyclopropyl-2-((8-(1-methyl-1H-pyrazol-5-yl)-2,3-dihydrobenzo[b][1,4]dioxin-5-yl)amino)-7H-pyrrolo[2,3-d] pyrimidine-5-carbonitrile]"
< 100,< 100,< 50,"COc1cc(N2CCCS2(=O)=O)ccc1Nc1nc(NC2CCOCC2)c2c(C(F)(F)F)c[nH]c2n1 [Example 174, 2-(3-methoxy-4-((4-((tetrahydro-2H-pyran-4-yl)amino)-5-(trifluoromethyl)-7H-pyrrolo[2,3-d]pyrimidin-2-yl)amino)phenyl)isot hiazolidine 1,1-dioxide]"
> 1000,> 1000,–,"Cn1nccc1-c1ccc(Nc2nc(NC3COC3)c3c(C#N)c[nH]c3n2)c2c1OCCO2 [Example 160, 2-((8-(1-methyl-1H-pyrazol-5-yl)-2,3-dihydrobenzo[b][1,4]dioxin-5-yl)amino)-4-(oxetan-3-ylamino)-7H-pyrrolo[2,3-d] pyrimidine-5-carbonitrile]"
> 1000,> 1000,–,"COc1cc(-c2ccnn2C)ccc1Nc1nc(NC2COC2)c2c(C#N)c[nH]c2n1 [Example 161, 2-((2-methoxy-4-(1-methyl-1H-pyrazol-5-yl)phenyl)amino)-4-(oxetan-3-ylamino)-7H-pyrrolo[2,3-d] pyrimidine-5-carbonitrile]"
< 100,–,50 to 200,"COc1cc(-c2c(C)noc2C)ccc1Nc1nc(NC2CCCC2)c2c(C#N)c[nH]c2n1 [Example 44, 4-(cyclopentylamino)-2-((4-(3,5-dimethylisoxazol-4-yl)-2-methoxyphenyl)amino)-7H-pyrrolo[2,3-d] pyrimidine-5-carbonitrile]"
> 1000,–,< 50,"COc1cc(-c2ccnn2C)ccc1Nc1nc(NCC(C)(C)C)c2c(C#N)c[nH]c2n1 [Example 12, 2-((2-methoxy-4-(1-methyl-1H-pyrazol-5-yl)phenyl)amino)-4-(neopentylamino)-7H-pyrrolo[2,3-d] pyrimidine-5-carbonitrile]"
< 100,–,< 50,"COc1cc(-c2ccn(C)n2)ccc1Nc1nc(NC2CCCC2)c2c(C#N)c[nH]c2n1 [Example 2, 4-(cyclopentylamino)-2-((2-methoxy-4-(1-methyl-1H-pyrazol-3-yl)phenyl)amino)-7H-pyrrolo[2,3-d] pyrimidine-5-carbonitrile]"
> 1000,–,< 50,"COc1cc(N2CCCC2=O)ccc1Nc1nc(NC2CCC2)c2c(C#N)c[nH]c2n1 [Example 69, 4-(cyclobutylamino)-2-((2-methoxy-4-(2-oxopyrrolidin-1-yl)phenyl)amino)-7H-pyrrolo[2,3-d] pyrimidine-5-carbonitrile]"

Structure (SMILES),GI50 (MDA-MB-231 cells) [nM],GI50 (SHP-77) [nM],IC50 (TTK) [nM]
"C[C@@H](Oc1cc(C(=O)N(C)C)ccc1Nc1nc(O[C@H]2CC[C@@](C)(O)CC2)c2c(Cl)c[nH]c2n1)C(F)(F)F [Example 86, 4-((5-chloro-4-(((1s,4S)-4-hydroxy-4-methylcyclohexyl)oxy)-7H-pyrrolo[2,3-d]pyrimidin-2-yl)amino)-N,N-dimethyl-3-(((R)-1,1,1-trifluoropropan-2-yl)oxy)benzamide]",< 100,–,< 50
